Test results as given in patent publication US11191806B2, “Polymyxin-based pharmaceutical composition for treating infectious diseases” (priority 2018, dated 2021).
Bridge positions count the residues as written; N and C are the ends. Square brackets hold non-standard residues; d marks the D form. Peptide text beside a SMILES is read from it. * marks the point of attachment. X1 = CC[C@H](C)CCCCC(=O)*; Dab = NCC[C@H](N)C(=O)O

How the values were obtained:
[1] = Accumulation of colistin in the kidneys after intravenous injection; type: in vivo; conditions: rats, colistin 0.5 mg/kg, SCDC 2 mg/kg
Method: In this experiment was determined, the accumulation of colistin in the kidneys of rats after intravenous injection of Polyfro (colistin, SCDC and liposomal cholecalciferol). Concentrations of colistin (CC), SCDC/cholecalciferol (CCF) were used based on preliminary modeling (the number of binding sites in one molecule, multiplied by their number in one megalin molecule, the molecular weight of megalin and the approximate amount of megalin in one kidney and the weight of the kidney) The result was the required amount of SCDC about 2 mg/kg of weight. For CS, a subtoxic dose was selected (based on the instructions). This is an experiment on the “displacement” of polymyxin from the kidneys with a synergistic combination of SCDC/HCF. As a result, about half of the polymyxin was displaced from the kidneys by SCDC/HCF. All components of CC, SCDC/CCF were determined in the sediment of renal homogenate and supernatant by HPLC. […] The content of colistin in the kidneys (A) and its concentration in terms of the weight of the kidneys (μg/g) (B) are shown in FIG. 1.
All data are statistically significant and differences between groups and controls are significant.

[2] = Degree of destruction of kidney tissue: urinary NGAL and NAG (ELISA); type: in vivo, rats
Method: The degree of destruction of kidney tissue was determined by the concentration in the urine of acetyl-beta-glucosaminidase (N-acetyl-beta-d-glucosaminidase) (NAG) and neutrophilic gelatinase-associated lipocalin (neutrophil gelatinase-associated lipocalin) (NGAL) (Table 5).
The concentrations of NGAL and NAG in urine were determined using ELISA-text systems on a StatFax303+reader.

[3] = target: T1, megalin of rat kidney homogenate (Rattus norvegicus, UniProt P98158); experiment: Binding of cyanocobalamin derivatives to renal megalin (micromethod in Eppendorf tubes, HPLC of supernatant); conditions: derivative in supernatant after centrifugation determined by HPLC
T1 construct: megalin of rat kidney homogenate; from tissue; host or cells: rat kidney homogenate
T1 sequence (P98158 26-4660): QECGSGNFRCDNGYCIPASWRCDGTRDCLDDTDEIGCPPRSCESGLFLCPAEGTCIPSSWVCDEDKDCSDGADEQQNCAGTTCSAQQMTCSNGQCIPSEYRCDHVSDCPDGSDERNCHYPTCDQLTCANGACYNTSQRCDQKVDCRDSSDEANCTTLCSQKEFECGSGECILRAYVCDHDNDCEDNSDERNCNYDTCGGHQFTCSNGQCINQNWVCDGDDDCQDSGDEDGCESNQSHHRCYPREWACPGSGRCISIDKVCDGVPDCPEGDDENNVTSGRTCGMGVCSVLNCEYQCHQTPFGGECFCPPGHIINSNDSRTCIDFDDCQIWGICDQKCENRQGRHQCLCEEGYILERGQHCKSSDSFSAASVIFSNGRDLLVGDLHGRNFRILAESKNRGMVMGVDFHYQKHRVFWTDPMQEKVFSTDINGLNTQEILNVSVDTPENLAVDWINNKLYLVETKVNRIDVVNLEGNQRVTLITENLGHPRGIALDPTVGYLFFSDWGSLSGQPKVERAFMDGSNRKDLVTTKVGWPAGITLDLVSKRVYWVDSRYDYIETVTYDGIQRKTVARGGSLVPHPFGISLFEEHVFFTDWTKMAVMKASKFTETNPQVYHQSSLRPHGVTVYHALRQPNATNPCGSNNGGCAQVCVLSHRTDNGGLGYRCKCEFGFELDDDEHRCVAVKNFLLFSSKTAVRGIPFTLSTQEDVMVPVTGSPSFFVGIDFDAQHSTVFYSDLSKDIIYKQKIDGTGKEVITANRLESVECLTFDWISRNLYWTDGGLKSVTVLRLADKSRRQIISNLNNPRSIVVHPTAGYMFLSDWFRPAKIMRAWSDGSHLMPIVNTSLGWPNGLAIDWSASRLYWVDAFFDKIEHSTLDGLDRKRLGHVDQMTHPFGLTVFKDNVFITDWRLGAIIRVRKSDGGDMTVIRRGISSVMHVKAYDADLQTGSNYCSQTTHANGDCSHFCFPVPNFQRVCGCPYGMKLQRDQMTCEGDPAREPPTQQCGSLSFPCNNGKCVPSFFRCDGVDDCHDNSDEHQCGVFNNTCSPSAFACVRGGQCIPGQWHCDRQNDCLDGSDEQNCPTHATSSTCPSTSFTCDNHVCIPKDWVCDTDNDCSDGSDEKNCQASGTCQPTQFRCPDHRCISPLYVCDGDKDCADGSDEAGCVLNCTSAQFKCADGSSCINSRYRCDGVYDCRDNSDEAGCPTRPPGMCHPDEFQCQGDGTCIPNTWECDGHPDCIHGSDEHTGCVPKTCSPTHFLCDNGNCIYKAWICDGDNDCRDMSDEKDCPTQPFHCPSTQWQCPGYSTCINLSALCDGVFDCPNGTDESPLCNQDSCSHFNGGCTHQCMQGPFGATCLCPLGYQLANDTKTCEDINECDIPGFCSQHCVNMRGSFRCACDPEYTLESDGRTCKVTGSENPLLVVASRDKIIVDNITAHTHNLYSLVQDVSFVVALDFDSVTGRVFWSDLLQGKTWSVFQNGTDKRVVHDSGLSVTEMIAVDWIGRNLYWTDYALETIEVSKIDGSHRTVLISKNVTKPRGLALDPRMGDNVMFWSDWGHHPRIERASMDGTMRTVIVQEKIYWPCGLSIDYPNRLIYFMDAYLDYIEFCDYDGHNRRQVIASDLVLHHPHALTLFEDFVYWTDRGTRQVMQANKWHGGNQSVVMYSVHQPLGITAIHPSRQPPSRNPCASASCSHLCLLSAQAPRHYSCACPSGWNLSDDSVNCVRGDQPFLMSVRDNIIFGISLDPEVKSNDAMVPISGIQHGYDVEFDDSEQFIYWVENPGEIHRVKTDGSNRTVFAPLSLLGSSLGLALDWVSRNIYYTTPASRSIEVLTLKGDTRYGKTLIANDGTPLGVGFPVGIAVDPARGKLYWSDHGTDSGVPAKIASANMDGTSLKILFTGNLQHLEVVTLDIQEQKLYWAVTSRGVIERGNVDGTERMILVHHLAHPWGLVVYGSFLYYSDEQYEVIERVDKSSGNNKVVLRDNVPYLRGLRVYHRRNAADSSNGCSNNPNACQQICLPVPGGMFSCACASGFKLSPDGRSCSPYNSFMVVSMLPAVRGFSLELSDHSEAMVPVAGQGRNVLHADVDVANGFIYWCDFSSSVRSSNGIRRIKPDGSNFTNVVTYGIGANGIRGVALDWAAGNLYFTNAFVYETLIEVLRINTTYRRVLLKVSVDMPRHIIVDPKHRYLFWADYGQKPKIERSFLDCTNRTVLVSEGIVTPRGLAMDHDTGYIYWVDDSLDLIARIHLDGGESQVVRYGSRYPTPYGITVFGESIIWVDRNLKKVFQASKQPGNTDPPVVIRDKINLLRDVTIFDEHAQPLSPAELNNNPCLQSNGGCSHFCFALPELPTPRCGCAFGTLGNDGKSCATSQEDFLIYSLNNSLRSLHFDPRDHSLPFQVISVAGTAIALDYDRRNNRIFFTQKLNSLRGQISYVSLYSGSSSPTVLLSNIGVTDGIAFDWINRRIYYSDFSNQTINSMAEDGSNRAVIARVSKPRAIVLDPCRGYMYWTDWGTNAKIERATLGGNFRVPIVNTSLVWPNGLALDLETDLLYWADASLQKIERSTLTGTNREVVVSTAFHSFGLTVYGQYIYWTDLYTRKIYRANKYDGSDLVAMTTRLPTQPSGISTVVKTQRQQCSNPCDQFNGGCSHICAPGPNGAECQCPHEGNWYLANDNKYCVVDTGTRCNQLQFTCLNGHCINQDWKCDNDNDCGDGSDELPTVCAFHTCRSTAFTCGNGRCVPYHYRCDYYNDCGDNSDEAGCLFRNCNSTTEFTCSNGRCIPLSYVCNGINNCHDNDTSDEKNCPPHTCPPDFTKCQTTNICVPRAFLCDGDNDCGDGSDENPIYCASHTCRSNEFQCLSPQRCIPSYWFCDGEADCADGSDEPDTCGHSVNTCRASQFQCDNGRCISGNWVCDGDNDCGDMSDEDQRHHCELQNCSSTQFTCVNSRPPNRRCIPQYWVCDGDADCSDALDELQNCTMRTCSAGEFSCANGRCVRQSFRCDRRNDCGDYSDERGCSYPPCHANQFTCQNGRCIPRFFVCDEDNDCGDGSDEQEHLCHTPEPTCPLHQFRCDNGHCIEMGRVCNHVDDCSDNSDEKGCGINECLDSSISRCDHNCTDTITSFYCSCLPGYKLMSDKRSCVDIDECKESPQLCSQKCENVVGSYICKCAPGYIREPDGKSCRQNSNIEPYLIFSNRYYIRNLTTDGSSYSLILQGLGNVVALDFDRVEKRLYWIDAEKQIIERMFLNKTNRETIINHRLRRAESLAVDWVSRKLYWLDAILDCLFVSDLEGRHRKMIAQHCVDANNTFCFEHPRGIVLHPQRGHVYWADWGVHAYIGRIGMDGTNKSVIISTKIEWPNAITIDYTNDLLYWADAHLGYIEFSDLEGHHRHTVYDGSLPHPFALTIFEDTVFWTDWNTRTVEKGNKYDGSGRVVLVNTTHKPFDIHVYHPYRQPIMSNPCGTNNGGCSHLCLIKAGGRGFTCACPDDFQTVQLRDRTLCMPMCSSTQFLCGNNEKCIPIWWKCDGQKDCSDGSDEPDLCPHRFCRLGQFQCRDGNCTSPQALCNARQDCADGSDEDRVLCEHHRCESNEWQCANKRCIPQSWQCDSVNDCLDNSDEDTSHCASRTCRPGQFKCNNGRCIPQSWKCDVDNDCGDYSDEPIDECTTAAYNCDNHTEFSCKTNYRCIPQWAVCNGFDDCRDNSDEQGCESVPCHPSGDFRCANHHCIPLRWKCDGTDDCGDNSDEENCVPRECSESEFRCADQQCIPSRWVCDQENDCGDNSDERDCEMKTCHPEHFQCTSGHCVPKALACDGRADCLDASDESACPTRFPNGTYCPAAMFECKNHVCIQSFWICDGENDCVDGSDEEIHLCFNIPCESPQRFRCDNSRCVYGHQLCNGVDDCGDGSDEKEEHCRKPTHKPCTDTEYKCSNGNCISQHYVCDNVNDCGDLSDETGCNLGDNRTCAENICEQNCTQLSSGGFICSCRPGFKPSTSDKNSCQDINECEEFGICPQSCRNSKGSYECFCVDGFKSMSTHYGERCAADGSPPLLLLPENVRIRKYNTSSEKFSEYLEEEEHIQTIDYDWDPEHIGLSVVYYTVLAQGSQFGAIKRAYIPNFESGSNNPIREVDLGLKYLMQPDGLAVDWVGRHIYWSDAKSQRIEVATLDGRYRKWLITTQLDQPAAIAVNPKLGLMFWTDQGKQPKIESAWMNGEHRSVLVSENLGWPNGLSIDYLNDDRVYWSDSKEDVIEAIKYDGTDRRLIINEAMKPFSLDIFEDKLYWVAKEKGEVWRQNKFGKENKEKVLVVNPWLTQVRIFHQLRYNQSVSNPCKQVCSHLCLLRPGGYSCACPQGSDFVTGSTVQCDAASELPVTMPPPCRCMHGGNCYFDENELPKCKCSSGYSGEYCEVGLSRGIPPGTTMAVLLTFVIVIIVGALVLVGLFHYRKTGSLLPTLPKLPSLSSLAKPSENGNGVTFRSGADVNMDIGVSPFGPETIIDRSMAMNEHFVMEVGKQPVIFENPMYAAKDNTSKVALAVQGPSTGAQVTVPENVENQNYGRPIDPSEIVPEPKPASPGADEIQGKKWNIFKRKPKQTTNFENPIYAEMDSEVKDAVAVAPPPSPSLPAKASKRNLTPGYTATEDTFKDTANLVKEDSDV
Method: The test was carried out by a micromethod in Eppendorf tubes on the ability of cyanocobalamin derivatives to bind to megalin: after centrifugation, the bound derivative together with megalin remained in the sediment, and the percentage of the remaining unreacted cyanocobalamin derivative in the supernatant was determined using HPLC on a Milichrom A-02 liquid chromatograph.

[4] = Table 5, rats, i.v. 1 time per day for 10 days, 0.5/15 mg/kg polymyxin/SCDC

Compound: CC[C@H](C)CCCCC(=O)N[C@@H](CCN)C(=O)N[C@H](C(=O)N[C@@H](CCN)C(=O)N[C@H]1CCNC(=O)[C@H]([C@@H](C)O)NC(=O)[C@H](CCN)NC(=O)[C@H](CCN)NC(=O)[C@H](CC(C)C)NC(=O)[C@@H](CC(C)C)NC(=O)[C@H](CCN)NC1=O)[C@@H](C)O [Colistin, colistin] (X1-[Dab]T[Dab][Dab][Dab][dL]L[Dab][Dab]T; lactam 4-C)
- Accumulation of colistin in the kidneys [1]: 20.5 ± 2.5 µg
- Urinary Excretion of NGAL [2, 4]: 775 ± 33 µg/h
- Urinary NAG Excretion [2, 4]: 2578 ± 95 µg/h
- Urinary Excretion of NGAL ([2]; Table 6, n = 15): 775 ± 33 µg/h
- Urinary NAG Excretion ([2]; Table 6, n = 15): 2578 ± 95 µg/h

Compound: cyanocobalamin [derivative 11]
- % bound derivative [3]: 52%

Compound: triacetyl-cyanocobalamin [derivative 31]
- % bound derivative [3]: 7%

Compound: trisuccinyl-cyanocobalamin [derivative 30]
- % bound derivative [3]: 6%
